According to PubChem BioAssay (NCI):
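Growth conditions: 96-well plates. Treatment: test compound, 48 hours, 5 concentrations. Analysis: linear interpolation between bracketing concentrations; unreached endpoints set to highest concentration. TGI denotes the concentration required for complete inhibition of growth.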

Experiments:
Assay in all cases: NCI tumour cell line growth inhibition, 48 h
[1] = tested on: 786-0 renal
[2] = tested on: A498 renal
[3] = tested on: A549 NSCLC
[4] = tested on: BT-549 breast
[5] = tested on: CAKI-1 renal
[6] = tested on: CCRF-CEM leukemia
[7] = tested on: COLO 205 colon
[8] = tested on: DU-145 prostate
[9] = tested on: EKVX NSCLC
[10] = tested on: HCC-2998 colon
[11] = tested on: HCT-116 colon
[12] = tested on: HCT-15 colon
[13] = tested on: HL-60(TB) leukemia
[14] = tested on: HOP-62 NSCLC
[15] = tested on: HOP-92 NSCLC
[16] = tested on: HS 578T breast
[17] = tested on: HT29 colon
[18] = tested on: IGROV1 ovarian
[19] = tested on: K-562 leukemia
[20] = tested on: KM12 colon
[21] = tested on: LOX IMVI melanoma
[22] = tested on: M14 melanoma
[23] = tested on: MALME-3M melanoma
[24] = tested on: MCF7 breast
[25] = tested on: MDA-MB-231 breast
[26] = tested on: MDA-MB-435
[27] = tested on: MDA-N
[28] = tested on: MOLT-4 leukemia
[29] = tested on: NCI-H226 lung
[30] = tested on: NCI-H23 lung
[31] = tested on: NCI-H460 lung
[32] = tested on: NCI-H522 lung
[33] = tested on: NCI/ADR-RES ovarian
[34] = tested on: OVCAR-3 ovarian
[35] = tested on: OVCAR-5 ovarian
[36] = tested on: OVCAR-8 ovarian
[37] = tested on: PC-3 prostate
[38] = tested on: RPMI-8226 leukemia
[39] = tested on: RXF 393 renal
[40] = tested on: SF-268 CNS
[41] = tested on: SF-295 CNS
[42] = tested on: SF-539 CNS
[43] = tested on: SK-MEL-2 melanoma
[44] = tested on: SK-MEL-5 melanoma
[45] = tested on: SK-OV-3 ovarian
[46] = tested on: SN12C renal
[47] = tested on: SNB-19 CNS
[48] = tested on: SNB-75 CNS
[49] = tested on: SR leukemia
[50] = tested on: SW-620 colon
[51] = tested on: T-47D breast
[52] = tested on: TK-10 renal
[53] = tested on: U251 CNS
[54] = tested on: UACC-257 melanoma
[55] = tested on: UACC-62 melanoma
[56] = tested on: UO-31 renal
[57] = tested on: ACHN renal
[58] = tested on: OVCAR-4 ovarian
[59] = tested on: SK-MEL-28 melanoma

Cc1ccc(S(=O)(=O)n2cc(C=O)c(-c3cn(S(=O)(=O)c4ccc(C)cc4)cc3-c3cn(S(=O)(=O)c4ccc(C)cc4)cc3C=O)c2)cc1
TGI [1]: > 100 µM
TGI [2]: > 100 µM
TGI [3]: > 100 µM
TGI [4]: > 100 µM
TGI [5]: > 100 µM
TGI [6]: > 100 µM
TGI [7]: > 100 µM
TGI [8]: > 100 µM
TGI [9]: > 100 µM
TGI [10]: > 100 µM
TGI [11]: > 100 µM
TGI [12]: > 100 µM
TGI [13]: > 100 µM
TGI [14]: > 100 µM
TGI [15]: > 100 µM
TGI [16]: > 100 µM
TGI [17]: > 100 µM
TGI [18]: > 100 µM
TGI [19]: > 100 µM
TGI [20]: > 100 µM
TGI [21]: 74.4 µM
TGI [22]: > 100 µM
TGI [23]: > 100 µM
TGI [24]: 87.2 µM
TGI [25]: > 100 µM
TGI [26]: > 100 µM
TGI [27]: > 100 µM
TGI [28]: 93.3 µM
TGI [29]: > 100 µM
TGI [30]: > 100 µM
TGI [31]: > 100 µM
TGI [32]: > 100 µM
TGI [33]: > 100 µM
TGI [34]: > 100 µM
TGI [35]: > 100 µM
TGI [36]: > 100 µM
TGI [37]: > 100 µM
TGI [38]: > 100 µM
TGI [39]: > 100 µM
TGI [40]: > 100 µM
TGI [41]: > 100 µM
TGI [42]: 76.4 µM
TGI [43]: > 100 µM
TGI [44]: > 100 µM
TGI [45]: > 100 µM
TGI [46]: > 100 µM
TGI [47]: > 100 µM
TGI [48]: > 100 µM
TGI [49]: > 100 µM
TGI [50]: > 100 µM
TGI [51]: > 100 µM
TGI [52]: 72 µM
TGI [53]: > 100 µM
TGI [54]: > 100 µM
TGI [55]: > 100 µM
TGI [56]: > 100 µM

O=c1[nH]c(Nc2ccc(Br)c(C(F)(F)F)c2)nc2nc[nH]c12
TGI [1]: > 100 µM
TGI [2]: > 100 µM
TGI [3]: > 100 µM
TGI [57]: > 100 µM
TGI [4]: > 100 µM
TGI [5]: > 100 µM
TGI [6]: > 100 µM
TGI [7]: 41 µM
TGI [8]: > 100 µM
TGI [9]: > 100 µM
TGI [10]: 40.5 µM
TGI [11]: > 100 µM
TGI [12]: > 100 µM
TGI [13]: > 100 µM
TGI [14]: > 100 µM
TGI [15]: > 100 µM
TGI [16]: 45.6 µM
TGI [17]: > 100 µM
TGI [18]: > 100 µM
TGI [20]: > 100 µM
TGI [21]: > 100 µM
TGI [22]: > 100 µM
TGI [23]: > 100 µM
TGI [24]: > 100 µM
TGI [25]: > 100 µM
TGI [26]: > 100 µM
TGI [27]: > 100 µM
TGI [28]: 88.5 µM
TGI [29]: > 100 µM
TGI [30]: > 100 µM
TGI [31]: > 100 µM
TGI [32]: 63.5 µM
TGI [33]: > 100 µM
TGI [34]: 87 µM
TGI [58]: > 100 µM
TGI [35]: > 100 µM
TGI [36]: > 100 µM
TGI [37]: > 100 µM
TGI [38]: > 100 µM
TGI [40]: > 100 µM
TGI [41]: > 100 µM
TGI [42]: > 100 µM
TGI [43]: 44.4 µM
TGI [59]: > 100 µM
TGI [44]: 71.8 µM
TGI [45]: > 100 µM
TGI [46]: > 100 µM
TGI [47]: > 100 µM
TGI [48]: > 100 µM
TGI [49]: > 100 µM
TGI [50]: > 100 µM
TGI [51]: > 100 µM
TGI [52]: > 100 µM
TGI [53]: > 100 µM
TGI [54]: > 100 µM
TGI [55]: 61.6 µM
TGI [56]: 77.4 µM
